Columns and labels:
[1] = test system: isolated rat aortae; test: Vasorelaxing effect on the isolated rat aortae (Referential Example 1)-1); settings: inhibition of contraction induced by 40 mM KCl
Experimental: (§1) The compounds of the present invention were tested for their physiological activities by measuring the tension of isolated rat aortae isometrically.
Thoracic aortae obtained from male Wistar rats (weighing 250-350 g) were cut into ring segments about 3 mm long. The ring preparation was placed in an organ bath filled with 10 ml of Krebs-Ringer solution that was maintained at 37°C and gassed with 95% O₂ - 5% CO₂.
The preparation in the organ bath was allowed to equilibrate under resting tension of 1 g. After equilibration period, the solution in the organ bath was replaced with an isotonic solution containing 40 mM KCl to contract the preparation.
(§2) After the contraction induced by KCl had reached plateau, the concentration-response relationship for the test compound was determined by means of cumulative addition.
(§3) The relaxation response of the test compounds was expressed as the percent inhibition of the contraction induced by KCl, and the IC₅₀ value, which is a concentration required for inhibiting the contraction induced by KCl to an extent of 50%, was calculated by the Probit method from the concentration-response curve.

[2] = test system: potassium channel; test: Potassium channel activating effect (86Rb efflux from rat thoracic aorta); settings: compound 10⁻⁴ M for 8 minutes, percent of the efflux before application
Experimental: Male Wistar rats (weighing 250-350 g) were dehematized to death, and thoracic aortae were rapidly isolated. The aorta was opened along the longitudinal axis to prepare a flat sheet. The preparation was loaded with ⁸⁶Rb in the Krebs-Ringer solution which contained ⁸⁶Rb in the concentration of 10 µCi/ml and was gassed with 95% O₂ - 5% CO₂ at 37°C for 2 hours. The preparation was then transferred to a Krebs-Ringer solution not containing ⁸⁶Rb, and washed to remove excess radioactivity for 18 minutes by refreshing the solution every 2 minutes. Finally the preparation was placed into a Krebs-Ringer solution containing each compound (10⁻⁴ M) for 8 minutes.
The amount of ⁸⁶Rb efflux from the preparation in each period was determined with a γ-counter.
The increment in efflux rate during the application of the compound was expressed as percent of the efflux before the application of the compound.

[3] = test system: spontaneous hypertensive rats (SHR); test: Hypotensive effect on spontaneous hypertensive rats (intravenously) (Referential Example 1)-3); type: in vivo; settings: Rattus norvegicus, iv, anesthetized SHR, dose descending mean blood pressure by 20%; read-out: ED₂₀ (mg/kg, i.v.)
Experimental: (§4) Rats were anesthetized with urethane-α-chloralose (1 g/kg - 25 mg/kg; intraperitoneally). Mean blood pressure was measured by a pressure transducer through a cannula inserted into the carotid artery. The compound was cumulatively administered every 30 minutes through the cannula inserted into the jagular vein. The change in blood pressure was expressed as percent of the blood pressure before the administration of the compound. And the ED₂₀ value, which was the dose required for descending blood pressure to an extent of 20%, was calculated from the dose-response curve.

[4] = test system: isolated rat aortae; test: Vasorelaxing effect on the isolated rat aortae (Referential Example 2)-1); settings: inhibition of contraction induced by 40 mM KCl, read-out: IC₅₀ Value
Experimental: as §1
Thoracic aortae obtained from male Wistar rats (weighing 250-350 g) were cut into ring segments about 3 mm long. The ring preparation was placed in an organ bath filled with 10 ml of Krebs-Ringer solution which was maintained at 37°C and gassed with 95% O₂ - 5% CO₂.
The preparation in the organ bath was allowed to equilibrate under resting tension 1 g. After equilibration period, the solution in the organ bath was replaced with an isotonic solution containing 40 mM KCl to contract the preparation.
as §2, §3

[5] = test system: spontaneous hypertensive rats (SHR); test: Hypotensive effect on spontaneous hypertensive rats (intravenously) (Referential Example 2)-2); type: in vivo; settings: Rattus norvegicus, iv, anesthetized SHR, dose decreasing mean blood pressure by 20%; read-out: ED₂₀ (mg/kg, i.v.)
Experimental: as §4, with “decreasing” for “descending”

[6] = test system: isolated heart of rats; test: Myocardiac injury induced by re-perfusion after ischemia (isolated heart of rats); settings: 1×10⁻⁶ mole/min, after 30 minutes re-perfusion, mean ± SD
Experimental: The cardiac muscle protecting effect of the compound of the present invention was tested by using the isolated heart of rats [test compound: N-cyano-N′-(2-nitroxyethyl)-3-pyridinecarboximidamide (compound (13))]. The Langendorff's method was used in the same manner as in the aforementioned Referential Example 1)-6. The isolated heart was perfused with a perfusate for 30 minutes and then with a perfusate containing the test compound for 10 minutes, and perfusion was stopped so that the heart was in the so-called "ischemic state". Pacing was performed during the ischemia. […] Parameters of cardiac function after the onset of re-perfusion was monitored for 30 minutes, and the heart was quickly freezed. The amount of ATP in the heart muscle was extracted with perchloric acid and determined by HPLC. Nicorandil was used as a control.
The recovery rate of the cardiac function (heart rate × left ventricular pressure) after onset of reperfusion was calculated based on the cardiac function prior to the perfusion of the compound (13) and nicorandil as 100%. The amount of ATP in the heart muscle was also determined.

[7] = test system: isolated rat heart; test: Effect on isolated rat heart (Langendorff's method); settings: 1 × 10⁻⁸ mol/min, mean ± S.D.
Experimental: The effect of the compound of the present invention on heart of rats was examined by using the Langendorff's method [test compound: N-cyano-N′-(2-nitroxyethyl)-3-pyridinecarboximidamide (compound (13))]. Hearts were excised from male rats (weighing 250-350 g) and perfused at 80 cmH₂O in a Langendorff fashion. Krebs-Hensaleit bicarbonate solution (pH 7.4, 37°C) containing an 11 mM glucose which was oxygenated with 95% O₂- 5% CO₂ gas mixture was used as a perfusate. The left ventricular pressure was recorded by inserting a latex baloon into the left ventricle, and heart rate was determined from the pulse of it. Coronary perfusate flow was also measured with an electromagnetic flowmeter. The experiments were carried out by perfusing a perfusate containing the compound (13) for 10 minutes after an initial equilibration period for 30 minutes. As the control compound, nicorandil which has an effect opening potassium channel and is similar to the test compound in structure was used. The changes in the coronary perfusate flow and the cardiac function (heart rate × left ventricular pressure) caused by these compounds were expressed as percent changes from the preperfusion values of the compound (13) or nicorandil.

[8] = test system: beagles; test: Hemodynamic profile in beagles (intravenously); type: in vivo; settings: peak percent change from pretreatment
Experimental: Hemodynamic profile of the compound of the present invention was investigated in beagles anesthetized with pentobarbital (30 mg/kg, intravenously) [test compound: N-cyano-N′-(2-nitroxyethyl)-3-pyridinecarboximidamide (compound (13))]. The thorax was opened under artificial respiration. After administering heparin in an amount of 500 units/kg, a Moravitz's cannula was introduced into the coronary sinus via the right atrium. The coronary sinus outflow was returned to the right external jagular vein. The coronary sinus outflow was measured by an electromagnetic flowmeter (MFU-2100, manufactured by Nihon Kohden) connected to the Moravitz's cannula. A cannula was inserted into the aortic arch through the subclavian artery to measure aortic blood pressure. The aortic blood pressure was measured with a pressure transducer (Nihon Kohden, TP-200T). Heart rate was monitored with a heart rate counter with R waves of electrocardiogram. All parameters were recorded on a thermosensitive recorder (WT-685G, manufactured by Nihon Kohden).
The compound was administered through the cannula inserted into the right femoral vein. Nicorandil was used as a control. As for respective measurement items, peak changes were expressed as percent change from the pretreatment values of the compound (13) or nicorandil.

| IC50 [1] [µM] | IC50 [4] [µM] | Structure (SMILES) | ED20 [3] [mg/kg] | further results |
| --- | --- | --- | --- | --- |
| 66 | – | N#CNC(=NCc1ccccc1)c1cccnc1 [(17), N-cyano-N'-benzyl-3-pyridinecarboximidamide] | 0.25 | Increment of Efflux (%) [2]: 135.41% |
| 40 | – | N#CNC(=NCCc1ccccc1)c1cccnc1 [(27), N-cyano-N'-(2-phenylethyl)-3-pyridinecarboximidamide] | 0.074 | Increment of Efflux (%) [2]: 206.61% |
| 38 | – | N#CNC(=NCCc1ccccc1Cl)c1cccnc1 [(29), N-cyano-N'-[2-(2-chlorophenyl)ethyl]-3-pyridinecarboximidamide] | 0.013 | – |
| 12 | – | N#CNC(=NCCO[N+](=O)[O-])c1ccncc1 [(41), N-cyano-N'-(2-nitroxyethyl)-4-pyridinecarboximidamide] | 0.13 | Increment of Efflux (%) [2]: 126.88% |
| – | 26 | N#CNC(=NCCO[N+](=O)[O-])c1ccco1 [(62), N-cyano-N′-(2-nitroxyethyl)-2-furancarboximidamide] | – | ED20 [5]: 0.025 mg/kg |
| – | 8 | N#CNC(=NCCO[N+](=O)[O-])c1ccoc1 [(64), N-cyano-N′-(2-nitroxyethyl)-3-furancarboximidamide] | – | – |
| – | 94 | N#CNC(=NCCc1ccccc1)c1ccoc1 [(65), N-cyano-N′-(2-phenylethyl)-3-furancarboximidamide] | – | – |
| – | 9.6 | N#CNC(=NCCO[N+](=O)[O-])c1cccs1 [(66), N-cyano-N′-(2-nitroxyethyl)-2-thiophenecarboximidamide] | – | ED20 [5]: 0.115 mg/kg |
| – | 19 | N#CNC(=NCCc1ccccc1)c1cccs1 [(67), N-cyano-N′-(2-phenylethyl)-2-thiophenecarboximidamide] | – | – |
| – | 92 | N#CNC(=NCCc1ccccc1)c1ccsc1 [(68), N-cyano-N′-(2-phenylethyl)-3-thiophenecarboximidamide] | – | – |
| – | 40 | N#CNC(=NCCc1ccccc1)c1ccc(C#N)cc1 [(69), N-cyano-N′-(2-phenylethyl)-4-cyanobenzenecarboximidamide] | – | – |
| – | 4.3 | CSC(=NC#N)NCCO[N+](=O)[O-] [(70), 3-Cyano-2-methyl-1-(2-nitroxyethyl)-isothiourea] | – | – |
| 4.6 | – | N#CNC(=NCCO[N+](=O)[O-])c1ccccn1 [Compound (1), N-cyano-N'-(2-nitroxyethyl)-2-pyridinecarboximidamide] | 0.037 | – |
| – | 24 | N#CNC(=NCCO[N+](=O)[O-])c1cnc2ccccc2c1 [Compound (59), N-cyano-N′-(2-nitroxyethyl)-3-quinolinecarboximidamide] | – | – |
| – | – | O=C(NCCO[N+](=O)[O-])c1cccnc1 [Nicorandil, nicorandil, reference compound] | – | Amount of ATP in the heart muscle (µmole/g of dry weight) [6]: 5.93±0.49 (4) µmole/g of dry weight; Coronary Perfusate Flow (% change) ([7]; perfusion 10 minutes): 3.3±5.6 % change; Cardiac Function ([7]; heart rate × left ventricular pressure, percent change from preperfusion): 3.7±6.7%; Coronary Blood Flow ([8]; i.v. 100.0 µg/kg): 20.3±5.1%; Heart Rate ([8]; i.v. 100.0 µg/kg): 0.2±2.1%; Mean Aortic Blood Pressure ([8]; i.v. 100.0 µg/kg): -21.3±1.9%; Coronary Blood Flow ([8]; i.v. 300.0 µg/kg): 84.9±10.8%; Heart Rate ([8]; i.v. 300.0 µg/kg): -20.7±1.9%; Mean Aortic Blood Pressure ([8]; i.v. 300.0 µg/kg): -43.1±5.4% |
